Measured values from patent publication US20060111305A1, “Metabolites of certain [1,4]diazepino[6,7,1-ij]quinoline derivatives and methods of preparation and use thereof” (Wyeth, priority 2004, published 2006).
Values joined by “and” are separate entries in the source; they are usually repeats but may differ in a detail not shown here. Equal values may be shown once. Read-outs that look alike come from different tables or passages of the source.

Experiment: Concentrations of DCDQ and DCDQ carbamoyl glucuronide (M6) in human plasma, LC/SRM (Table 34)
Format: in vivo, healthy human subjects
Settings: for concentration at 6 h / concentration at 12 h / concentration at 24 h: human, oral, read-out: M6 concentration in plasma; for concentration at 6 h / concentration at 12 h / concentration at 24 h / M6 to DCDQ Ratios / M6 concentration in plasma: plasma
Procedure: Drug administration and specimen collection were performed in a randomized, double-blinded, placebo-controlled, ascending single dose study of the safety, tolerability, pharmacokinetics, and pharmacodynamics of DCDQ administered orally to healthy subjects and subjects with schizophrenia and schizoaffective disorder. The specimens were stored at approximately −70° C. until analysis for metabolite profiles and for ratios of carbamoyl glucuronide (M6) to DCDQ.
Plasma samples from fasted subjects 25, 28 and 30 in the 50 mg single dose group, fasted subjects 50, 51, 54 in the 200 mg single dose group, fasted subjects 74, 76, 79 in the 300 mg single dose group, fed subjects 83, 84, 86 in the 300 mg single dose group and fasted subjects 92, 94, 96 in the 500 mg single dose group were analyzed for DCDQ carbamoyl glucuronide (M6) concentrations. The internal standard d8-DCDQ (25 μL of 200 ng/mL methanol solution) was added to 100 μL of the plasma samples, followed by the addition of 300 μL of acetonitrile. The samples were mixed and centrifuged at 14000 rpm in an Eppendorf 5415C centrifuge (Brinkman Instruments Inc., Westbury, N.Y.) for 10 minutes. The supernatant of each sample was transferred to a clean tube and evaporated to dryness under a stream of nitrogen in a TurboVap LV evaporator (Caliper Life Sciences, Hopkinton, Mass.). The residue was reconstituted with 50 μL of methanol followed by the addition of 150 μL of water. The sample was mixed and centrifuged as described above. The supernatant was analyzed by LC/MS/MS analysis. Samples for standard curves were prepared with control plasma spiked with synthetic M6. The concentrations of M6 used for the standard curve ranged from 0 to 2500 ng/mL plasma.
LC/MS System 3 was used for semi-quantitative analysis of metabolite M6 (DCDQ carbamoyl glucuronide) in plasma and urine samples. The HPLC equipment for this LC/MS System consisted of a Thermo Surveyor HPLC (Thermo Electron Corp., San Jose, Calif.), including a Surveyor MS pump and autosampler. Separations were accomplished on a 5 micron Phenomenex Luna C18(2) column, 150×2 mm (Phenomenex, Torrance, Calif.). The autosampler and column temperatures were set at 5° C. and 40° C., respectively. The HPLC mobile phase consisted of 10 mM ammonium acetate (A) and methanol (B), and was delivered at 0.2 mL/min. The linear mobile phase gradient (HPLC Gradient 2) is shown below. During LC/MS sample analysis, up to 3 min of the initial flow was diverted away from the mass spectrometer prior to evaluation of metabolites.
The mass spectrometer used for semi-quantitative anslysis with LC/MS System 3 was a Finnigan TSQ Quantum triple quadrupole mass spectrometer (Thermo Electron Corp.). The mass spectrometer was equipped with an electrospray interface and operated in the positive ionization mode. Settings for this mass spectrometer are listed below.
LC/MS/MS analysis in the selected reaction monitoring (SRM) mode (LC/SRM) was conducted for DCDQ and M6 using the following settings.
The computer program Microsoft Excel® 97 was used to calculate means and standard deviations and to perform the student t-test. Xcalibur (version 1.3) and MassLynx software (version 4.0) were used for collection and analysis of LC/MS data. Peak area ratios of M6 to the internal standard were used for quantitation of M6 in plasma samples.

[1] = 50 mg (fasted), 6 hr, individual subjects
[2] = 50 mg (fasted), 12 hr, individual subjects
[3] = 50 mg (fasted), 24 hr, individual subjects
[4] = 200 mg (fasted), 6 hr, individual subjects
[5] = 200 mg (fasted), 12 hr, individual subjects
[6] = 200 mg (fasted), 24 hr, individual subjects
[7] = 300 mg (fasted), 6 hr, individual subjects
[8] = 300 mg (fasted), 12 hr, individual subjects
[9] = 300 mg (fasted), 24 hr, individual subjects
[10] = 300 mg (fed), 6 hr, individual subjects
[11] = 300 mg (fed), 12 hr, individual subjects

differences in M6 concentrations and M6 to DCDQ ratios between fasted and fed subjects (300 mg of DCDQ): no statistically significant differences
concentration at 6 h (50 mg, 50 mg (fasted), 6 hr, Mean ± S.D.): 114 ± 26.9 ng/mL
concentration at 6 h (50 mg, 50 mg (fasted), 6 hr, individual subjects): 127 ng/mL
concentration at 12 h (50 mg, 50 mg (fasted), 12 hr, Mean ± S.D.): 12.4 ± 5 ng/mL
concentration at 24 h (50 mg, 50 mg (fasted), 24 hr, Mean (standard deviation not calculated)): 3.35 ng/mL
concentration at 24 h (50 mg, 50 mg (fasted), 24 hr, individual subjects): 3.1 ng/mL
concentration at 6 h (200 mg, 200 mg (fasted), 6 hr, Mean ± S.D.): 352 ± 228 ng/mL
concentration at 12 h (200 mg, 200 mg (fasted), 12 hr, Mean ± S.D.): 43.6 ± 17.1 ng/mL
concentration at 24 h (200 mg, 200 mg (fasted), 24 hr, Mean ± S.D.): 7.67 ± 2.5 ng/mL
concentration at 24 h (200 mg, 200 mg (fasted), 24 hr, individual subjects): 4.8 ng/mL
concentration at 6 h (300 mg, 300 mg (fasted), 6 hr, Mean ± S.D.): 237 ± 108 ng/mL
concentration at 12 h (300 mg, 300 mg (fasted), 12 hr, Mean ± S.D.): 88.7 ± 51.8 ng/mL
concentration at 24 h (300 mg, 300 mg (fasted), 24 hr, Mean ± S.D.): 28.9 ± 18.4 ng/mL
concentration at 6 h (300 mg, 300 mg (fed), 6 hr, Mean ± S.D.): 579 ± 354 ng/mL
concentration at 12 h (300 mg, 300 mg (fed), 12 hr, Mean ± S.D.): 286 ± 251 ng/mL
concentration at 24 h (300 mg, 300 mg (fed), 24 hr, Mean ± S.D.): 59 ± 75.9 ng/mL
concentration at 6 h (500 mg, 500 mg (fasted), 6 hr, Mean ± S.D.): 1020 ± 444 ng/mL
concentration at 12 h (500 mg, 500 mg (fasted), 12 hr, Mean ± S.D.): 178 ± 30.1 ng/mL
concentration at 12 h (500 mg, 500 mg (fasted), 12 hr, individual subjects): 146 ng/mL
concentration at 24 h (500 mg, 500 mg (fasted), 24 hr, Mean ± S.D.): 49.6 ± 32.6 ng/mL
M6 to DCDQ Ratios (50 mg (fasted), 6 hr, Mean ± S.D.): 74.3 ± 59.6
M6 concentration in plasma [1]: 132 ng/mL and 83.1 ng/mL
M6 to DCDQ Ratios [1]: 141 and 26.4
M6 to DCDQ Ratios (50 mg (fasted), 12 hr, Mean ± S.D.): 14.8 ± 7.87
M6 concentration in plasma [2]: 15.1 ng/mL and 6.60 ng/mL and 15.4 ng/mL
M6 to DCDQ Ratios [2]: 21.6 and 16.5 and 6.16
M6 to DCDQ Ratios (50 mg (fasted), 24 hr, Mean (standard deviation not calculated)): 10.8
M6 concentration in plasma [3]: 3.6 ng/mL
M6 to DCDQ Ratios [3]: 15.5 and 6.00
M6 to DCDQ Ratios (200 mg (fasted), 6 hr, Mean ± S.D.): 45.2 ± 34.0
M6 concentration in plasma [4]: 225 ng/mL and 615 ng/mL and 216 ng/mL
M6 to DCDQ Ratios [4]: 83.3 and 34.2 and 18.0
M6 to DCDQ Ratios (200 mg (fasted), 12 hr, Mean ± S.D.): 14.3 ± 14.8
M6 concentration in plasma [5]: 37.5 ng/mL and 62.9 ng/mL and 30.3 ng/mL
M6 to DCDQ Ratios [5]: 31.3 and 6.84 and 4.73
M6 to DCDQ Ratios (200 mg (fasted), 24 hr, Mean ± S.D.): 8.42 ± 6.68
M6 concentration in plasma [6]: 8.8 ng/mL and 9.4 ng/mL
M6 to DCDQ Ratios [6]: 16.0 and 3.38 and 5.88
M6 to DCDQ Ratios (300 mg (fasted), 6 hr, Mean ± S.D.): 46.1 ± 21.6
M6 concentration in plasma [7]: 123 ng/mL and 249 ng/mL and 339 ng/mL
M6 to DCDQ Ratios [7]: 58.9 and 58.3 and 21.2
M6 to DCDQ Ratios (300 mg (fasted), 12 hr, Mean ± S.D.): 23.5 ± 5.10
M6 concentration in plasma [8]: 43.0 ng/mL and 78.0 ng/mL and 145 ng/mL
M6 to DCDQ Ratios [8]: 28.7 and 23.4 and 18.5
M6 to DCDQ Ratios (300 mg (fasted), 24 hr, Mean ± S.D.): 24.1 ± 22.7
M6 concentration in plasma [9]: 48.5 ng/mL and 12.0 ng/mL and 26.3 ng/mL
M6 to DCDQ Ratios [9]: 49.9 and 6.98 and 15.5
M6 to DCDQ Ratios (300 mg (fed), 6 hr, Mean ± S.D.): 76.6 ± 54.9
M6 concentration in plasma [10]: 860 ng/mL and 696 ng/mL and 182 ng/mL
M6 to DCDQ Ratios [10]: 45.3 and 44.6 and 140
M6 concentration in plasma [11]: 279 ng/mL and 38.1 ng/mL and 540 ng/mL
M6 to DCDQ Ratios [11]: 25.6 and 4.73
M6 concentration in plasma (300 mg (fed), 24 hr, individual subjects): 24.6 ng/mL and 6.40 ng/mL and 146 ng/mL
M6 concentration in plasma (500 mg (fasted), 6 hr, individual subjects): 1324 ng/mL and 508 ng/mL and 1221 ng/mL
M6 concentration in plasma (500 mg (fasted), 12 hr, individual subjects): 181 ng/mL and 206 ng/mL
M6 concentration in plasma (500 mg (fasted), 24 hr, individual subjects): 58.3 ng/mL and 13.5 ng/mL and 77.0 ng/mL
SMILES: O=C(O)[C@H]1O[C@@H](OC(=O)N2CCN3C[C@@H]4CCC[C@@H]4c4cccc(c43)C2)[C@H](O)[C@@H](O)[C@@H]1O [Metabolite M6, carbamoyl glucuronide of DCDQ]
